{
  "source": "the supplement of paper PMC10307832",
  "test_in_all_cases": "relative viability (nuclei count vs DMSO), 5 days (fraction); higher = more cells survive",
  "key": {"17-AAG": {"compound": "C=CCNC1=C2C[C@@H](C)C[C@H](OC)[C@H](O)[C@@H](C)/C=C(\\C)[C@H](OC(N)=O)[C@@H](OC)/C=C\\C=C(/C)C(=O)NC(=CC1=O)C2=O [17-AAG]", "outline": "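Following overnight incubation at 37 °C, lung cancer cell lines in 1536-well plates were pinned with five library-drug doses (not always all listed) in √10 steps on vehicle-anchored plates. The cells then spent 5 days without medium change before a combined fix, permeabilisation and Hoechst stain, 4× imaging and MetaXpress nuclear counts. Viability is the treated-to-vehicle ratio of nuclei, taken as the median across plates. Only plates with control CV below 25% and at least one doubling passed.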"}, "17-AAG + Bortezomib": {"compound": "C=CCNC1=C2C[C@@H](C)C[C@H](OC)[C@H](O)[C@@H](C)/C=C(\\C)[C@H](OC(N)=O)[C@@H](OC)/C=C\\C=C(/C)C(=O)NC(=CC1=O)C2=O [17-AAG] + CC(C)C[C@H](NC(=O)[C@H](Cc1ccccc1)NC(=O)c1cnccn1)B(O)O [Bortezomib] (partner 0.002 µM)", "outline": "(§1)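 The day after seeding in 1536-well plates, lung cancer cell lines were treated by pin tool with a single drug, or with a fixed anchor-drug dose together with five library-drug doses (not always all listed) in √10 steps. After 5 days, a combined fix-and-stain solution (final 0.05% Triton X-100, 1% formaldehyde, 1 ug/ml Hoechst) was added. Nuclei counted on 4× images gave relative viability as treated counts over vehicle counts, reported as the median of duplicate plates.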"}, "17-AAG + Navitoclax": {"compound": "C=CCNC1=C2C[C@@H](C)C[C@H](OC)[C@H](O)[C@@H](C)/C=C(\\C)[C@H](OC(N)=O)[C@@H](OC)/C=C\\C=C(/C)C(=O)NC(=CC1=O)C2=O [17-AAG] + CC1(C)CCC(c2ccc(Cl)cc2)=C(CN2CCN(c3ccc(C(=O)NS(=O)(=O)c4ccc(N[C@H](CCN5CCOCC5)CSc5ccccc5)c(S(=O)(=O)C(F)(F)F)c4)cc3)CC2)C1 [Navitoclax] (partner 0.5 µM)", "outline": "as §1"}, "17-AAG + Foretinib": {"compound": "C=CCNC1=C2C[C@@H](C)C[C@H](OC)[C@H](O)[C@@H](C)/C=C(\\C)[C@H](OC(N)=O)[C@@H](OC)/C=C\\C=C(/C)C(=O)NC(=CC1=O)C2=O [17-AAG] + COc1cc2c(Oc3ccc(NC(=O)C4(C(=O)Nc5ccc(F)cc5)CC4)cc3F)ccnc2cc1OCCCN1CCOCC1 [Foretinib] (partner 0.25 µM)", "outline": "as §1"}, "17-AAG + Lapatinib": {"compound": "C=CCNC1=C2C[C@@H](C)C[C@H](OC)[C@H](O)[C@@H](C)/C=C(\\C)[C@H](OC(N)=O)[C@@H](OC)/C=C\\C=C(/C)C(=O)NC(=CC1=O)C2=O [17-AAG] + CS(=O)(=O)CCNCc1ccc(-c2ccc3ncnc(Nc4ccc(OCc5cccc(F)c5)c(Cl)c4)c3c2)o1 [Lapatinib] (partner 2 µM)", "outline": "as §1"}, "17-AAG + Pictilisib": {"compound": "C=CCNC1=C2C[C@@H](C)C[C@H](OC)[C@H](O)[C@@H](C)/C=C(\\C)[C@H](OC(N)=O)[C@@H](OC)/C=C\\C=C(/C)C(=O)NC(=CC1=O)C2=O [17-AAG] + CS(=O)(=O)N1CCN(Cc2cc3nc(-c4cccc5[nH]ncc45)nc(N4CCOCC4)c3s2)CC1 [Pictilisib] (partner 1 µM)", "outline": "as §1"}, "17-AAG + Crizotinib": {"compound": "C=CCNC1=C2C[C@@H](C)C[C@H](OC)[C@H](O)[C@@H](C)/C=C(\\C)[C@H](OC(N)=O)[C@@H](OC)/C=C\\C=C(/C)C(=O)NC(=CC1=O)C2=O [17-AAG] + C[C@@H](Oc1cc(-c2cnn(C3CCNCC3)c2)cnc1N)c1c(Cl)ccc(F)c1Cl [Crizotinib] (partner 1 µM)", "outline": "as §1"}, "17-AAG + Linsitinib": {"compound": "C=CCNC1=C2C[C@@H](C)C[C@H](OC)[C@H](O)[C@@H](C)/C=C(\\C)[C@H](OC(N)=O)[C@@H](OC)/C=C\\C=C(/C)C(=O)NC(=CC1=O)C2=O [17-AAG] + C[C@]1(O)C[C@@H](c2nc(-c3ccc4ccc(-c5ccccc5)nc4c3)c3c(N)nccn32)C1 [Linsitinib] (partner 1 µM)", "outline": "as §1"}, "17-AAG + Alpelisib": {"compound": "C=CCNC1=C2C[C@@H](C)C[C@H](OC)[C@H](O)[C@@H](C)/C=C(\\C)[C@H](OC(N)=O)[C@@H](OC)/C=C\\C=C(/C)C(=O)NC(=CC1=O)C2=O [17-AAG] + Cc1nc(NC(=O)N2CCC[C@H]2C(N)=O)sc1-c1ccnc(C(C)(C)C(F)(F)F)c1 [Alpelisib] (partner 2 µM)", "outline": "as §1"}, "17-AAG + Olaparib": {"compound": "C=CCNC1=C2C[C@@H](C)C[C@H](OC)[C@H](O)[C@@H](C)/C=C(\\C)[C@H](OC(N)=O)[C@@H](OC)/C=C\\C=C(/C)C(=O)NC(=CC1=O)C2=O [17-AAG] + O=C(c1cc(Cc2n[nH]c(=O)c3ccccc23)ccc1F)N1CCN(C(=O)C2CC2)CC1 [Olaparib] (partner 8 µM)", "outline": "as §1"}},
  "data": [
    {"cell line": "NCI-H1299", "values": [
      {"measurement": "relative viability", "setting": "17-AAG; 0.00128 µM", "value": 1.01},
      {"measurement": "relative viability", "setting": "17-AAG; 0.004048 µM", "value": 0.977},
      {"measurement": "relative viability", "setting": "17-AAG; 0.0128 µM", "value": 0.981},
      {"measurement": "relative viability", "setting": "17-AAG; 0.04048 µM", "value": 0.931},
      {"measurement": "relative viability", "setting": "17-AAG; 0.128 µM", "value": 0.538},
      {"measurement": "relative viability", "setting": "17-AAG + Bortezomib; first compound 0.00128 µM", "value": 1.06},
      {"measurement": "relative viability", "setting": "17-AAG + Bortezomib; first compound 0.004048 µM", "value": 0.977},
      {"measurement": "relative viability", "setting": "17-AAG + Bortezomib; first compound 0.0128 µM", "value": 1.01},
      {"measurement": "relative viability", "setting": "17-AAG + Bortezomib; first compound 0.04048 µM", "value": 0.948},
      {"measurement": "relative viability", "setting": "17-AAG + Bortezomib; first compound 0.128 µM", "value": 0.665},
      {"measurement": "relative viability", "setting": "17-AAG + Navitoclax; first compound 0.00128 µM", "value": 1.04},
      {"measurement": "relative viability", "setting": "17-AAG + Navitoclax; first compound 0.004048 µM", "value": 1.01},
      {"measurement": "relative viability", "setting": "17-AAG + Navitoclax; first compound 0.0128 µM", "value": 1.07},
      {"measurement": "relative viability", "setting": "17-AAG + Navitoclax; first compound 0.04048 µM", "value": 0.952},
      {"measurement": "relative viability", "setting": "17-AAG + Navitoclax; first compound 0.128 µM", "value": 0.755},
      {"measurement": "relative viability", "setting": "17-AAG + Foretinib; first compound 0.00128 µM", "value": 1.12},
      {"measurement": "relative viability", "setting": "17-AAG + Foretinib; first compound 0.004048 µM", "value": 1.03},
      {"measurement": "relative viability", "setting": "17-AAG + Foretinib; first compound 0.0128 µM", "value": 1.08},
      {"measurement": "relative viability", "setting": "17-AAG + Foretinib; first compound 0.04048 µM", "value": 1.04},
      {"measurement": "relative viability", "setting": "17-AAG + Foretinib; first compound 0.128 µM", "value": 0.945},
      {"measurement": "relative viability", "setting": "17-AAG + Lapatinib; first compound 0.00128 µM", "value": 0.964},
      {"measurement": "relative viability", "setting": "17-AAG + Lapatinib; first compound 0.004048 µM", "value": 0.904},
      {"measurement": "relative viability", "setting": "17-AAG + Lapatinib; first compound 0.0128 µM", "value": 0.924},
      {"measurement": "relative viability", "setting": "17-AAG + Lapatinib; first compound 0.04048 µM", "value": 0.779},
      {"measurement": "relative viability", "setting": "17-AAG + Lapatinib; first compound 0.128 µM", "value": 0.416},
      {"measurement": "relative viability", "setting": "17-AAG + Pictilisib; first compound 0.00128 µM", "value": 0.802},
      {"measurement": "relative viability", "setting": "17-AAG + Pictilisib; first compound 0.004048 µM", "value": 0.791},
      {"measurement": "relative viability", "setting": "17-AAG + Pictilisib; first compound 0.0128 µM", "value": 0.698},
      {"measurement": "relative viability", "setting": "17-AAG + Pictilisib; first compound 0.04048 µM", "value": 0.151},
      {"measurement": "relative viability", "setting": "17-AAG + Pictilisib; first compound 0.128 µM", "value": 0.0717},
      {"measurement": "relative viability", "setting": "17-AAG + Crizotinib; first compound 0.00128 µM", "value": 0.975},
      {"measurement": "relative viability", "setting": "17-AAG + Crizotinib; first compound 0.004048 µM", "value": 0.932},
      {"measurement": "relative viability", "setting": "17-AAG + Crizotinib; first compound 0.0128 µM", "value": 0.897},
      {"measurement": "relative viability", "setting": "17-AAG + Crizotinib; first compound 0.04048 µM", "value": 0.814},
      {"measurement": "relative viability", "setting": "17-AAG + Crizotinib; first compound 0.128 µM", "value": 0.237},
      {"measurement": "relative viability", "setting": "17-AAG + Linsitinib; first compound 0.00128 µM", "value": 0.999},
      {"measurement": "relative viability", "setting": "17-AAG + Linsitinib; first compound 0.004048 µM", "value": 0.922},
      {"measurement": "relative viability", "setting": "17-AAG + Linsitinib; first compound 0.0128 µM", "value": 0.919},
      {"measurement": "relative viability", "setting": "17-AAG + Linsitinib; first compound 0.04048 µM", "value": 0.894},
      {"measurement": "relative viability", "setting": "17-AAG + Linsitinib; first compound 0.128 µM", "value": 0.714},
      {"measurement": "relative viability", "setting": "17-AAG + Alpelisib; first compound 0.00128 µM", "value": 1.04},
      {"measurement": "relative viability", "setting": "17-AAG + Alpelisib; first compound 0.004048 µM", "value": 1.05},
      {"measurement": "relative viability", "setting": "17-AAG + Alpelisib; first compound 0.0128 µM", "value": 1},
      {"measurement": "relative viability", "setting": "17-AAG + Alpelisib; first compound 0.04048 µM", "value": 0.94},
      {"measurement": "relative viability", "setting": "17-AAG + Alpelisib; first compound 0.128 µM", "value": 0.729},
      {"measurement": "relative viability", "setting": "17-AAG + Olaparib; first compound 0.00128 µM", "value": 1.01},
      {"measurement": "relative viability", "setting": "17-AAG + Olaparib; first compound 0.004048 µM", "value": 0.922},
      {"measurement": "relative viability", "setting": "17-AAG + Olaparib; first compound 0.0128 µM", "value": 0.965},
      {"measurement": "relative viability", "setting": "17-AAG + Olaparib; first compound 0.04048 µM", "value": 0.605},
      {"measurement": "relative viability", "setting": "17-AAG + Olaparib; first compound 0.128 µM", "value": 0.282}
    ]}
  ]
}
